Measurements as given in US20260000079A1, “COMPOSITIONS AND METHODS FOR MODULATING IMMUNITY IN PLANTS” (BOYCE THOMPSON INSTITUTE FOR PLANT RESEARCH, INC., priority 2019, published 2026).

Legend:
M. incognita J2 larvae = assay: J2 larvae touching roots of pretreated seedlings in PF-127 gel; type: in vivo, Meloidogyne incognita; conditions: 48 hours pretreatment
Protocol: (§1) FIG. 4A provides a schematic of the experimental designs for assessing activation of defense pathways and resistance to nematodes and bacteria. […] Bacterial growth was assayed 3 days post inoculation. Data are averages±s.d. (n=17). […] Arabidopsis seedlings were treated with buffer or the indicated concentrations of ascr #18 for 48 hours before inoculation with approximately 300 freshly hatched M. incognita J2 larvae. The numbers of root galls of infected plants were counted 6 weeks post inoculation. Data are averages±s.d. (n≥15). […] Arabidopsis seedlings were treated with the indicated concentrations of ascr #18 for 48 hours before transfer into 12-well plates containing Pluronic® F-127 gel with ˜200 freshly hatched M. incognita J2 larvae. Larvae touching root tips (FIG. 4D) or the whole area of roots (FIG. 4E) were counted at 6 hours post seedling transfer. Data are average±s.d. (n=12). […] Transcript levels were determined by qRT-PCR and plotted as relative fold-change compared to mock treated plants. Data are averages±s.d (n≥6). *P≤0.05; **P≤0.005; ***P≤0.0005; two-tailed t-test.
FIG. 6A provides a graph of the number of nematodes touching the root tips of Arabidopsis wildtype and acx1acx5 treated with 50 nM ascr #18 or ascr #9 for 48 hours before transfer into 12-well plates containing Pluronic® F-127 gel with ˜200 freshly hatched M. incognita J2 larvae. Larvae touching the terminal part of roots were counted at 6 hours after seedling transfer. Data are average±s.d. (n=12). FIG. 6B provides a schematic of a Petri dish as shown in the plate layout. […] Larvae in the indicated scoring areas were counted after 4 hours. […] FIG. 6D provides the attraction index for different concentrations of ascr #18, ascr #9, or ascr #18/ascr #9 mixtures measured using the layout shown in FIG. 6C. […]
In a second experiment, wildtype and acx1acx5 were treated with ascr #18 for 48 hours prior to moving seedlings to a PF-127 gel containing approximately 200 M. incognita second-stage larvae (J2) (FIG. 4A, 4D, 4E). J2 larvae touching the roots were counted at 6 hours post seedling transfer.

[1] = test system: defense-response genes in Arabidopsis leaves; assay: qRT-PCR of defense-response genes in Arabidopsis leaves after root treatment; type: in vivo, Arabidopsis thaliana; conditions: leaves 24 hours after root treatment with 1 μM
Protocol: as §1
For each replicate, total RNA from Arabidopsis leaves were isolated from a pool of one leaf from each of three plants. For the seedling RNA analyses, Arabidopsis roots were collected from 30-40 seedlings for each replicates. Total RNA was isolated using Qiagen RNeasy® Plant Mini Kit (Qiagen) according to the manufacturer's instructions. DNAse treatment was done using DNA-Free™ Kit (Ambion) following the manufacturer's instructions. […]
For quantitative real-time PCR (qRT-PCR), transcripts were amplified using SYBR® Premix Ex-Taq™ (Takara) from 2.5 μL of 5×-diluted cDNA in a total 20 μL reaction using 0.1 μL of 100 μM gene-specific primers. […] The relative fold change was calculated according to the 2-ΔΔCt method (Manosalva, et al. (2015) Nat. Commun. 6:7795; Floss, et al. (2013) Proc. Natl. Acad. Sci. 110: E5025-34). […]
Next, it was determined whether differences in activation of defense signaling in wildtype and acx1acx5 plants underlie the observed differences in resistance to nematodes. […]

[2] = test system: bacteria, viruses, fungi, oomycetes, and nematodes; conditions: Manosalva, et al. (2015); cited from earlier work
tomato root exudates = assay: LC-MS of root exudates and growth media of ascr #18-treated tomato seedlings; type: in vivo, Solanum lycopersicum
Protocol: Data are average±SEM (n=6), n.d.=not detected. […] Exudates from approximately 40 seedlings were collected in distilled water and pooled. Abundances of ascarosides are shown as the peak area, as measured by LC-MS. Data are average±SEM (n=3); n.d.=not detected. FIGS. 5C and 5D show the relative abundances of ascarosides in root exudates of eight-day old tomato seedlings treated with 10 nM (FIG. 5C) or 1000 nM (FIG. 5D) ascr #18 for 6 hours. Exudates from approximately 10 seedlings were collected in distilled water and pooled. Abundances of ascarosides are shown as the peak area, as measured by LC-MS. Data are average±SEM (n=3); n.d.=not detected. FIG. 5E provides the relative abundances of ascr #10, ascr #1, and ascr #9 in the growth media of eight-day old tomato seedlings supplemented with 1 μM ascr #18. Ten-gram media samples were collected at different time points over a 48 hour period for metabolome extraction. Abundances of ascarosides are shown as the peak area, as measured by LC-MS.
To test this possibility, root-secreted metabolites of ascr #18- and mock-treated Arabidopsis were compared (FIG. 5A). For this experiment, 10-day old Arabidopsis seedlings were treated in growth media supplemented with ascr #18 for 6 hours prior to collection of exudates from roots submerged in water. […] Analogous results were obtained in experiments with tomato roots (FIG. 5C, 5D).

Row | Compound | effect on M. incognita behavior (J2 larvae touching roots) (M. incognita J2 larvae; wildtype or mutant, 1 μM) | numbers of J2 larvae touching the root tips or whole root area (M. incognita J2 larvae; wildtype, 50 nM, counted 6 hours post transfer) | induction of MAPK-related FRK1 ([1]; acx1acx5 vs wildtype) | induction of jasmonic acid signaling genes (PDF1.2, AOS, LOX2) ([1]; wildtype vs acx1acx5) | induction of salicylic acid signaling genes (PR-1, PR-4) ([1]; wildtype vs acx1acx5) | resistance of plants to pathogens [2] | effect on infection (J2 larvae touching root tips) (M. incognita J2 larvae; wildtype or acx1acx5, 50 nM) | relative abundance among root-excreted ascr #18 metabolites (tomato root exudates)
1 | CC1O[C@@H](O[C@@H](C)CCCCCCCCC(=O)O)C(O)C[C@H]1O (stereo in doubt) [ascr #18, (10R)-(3′R,5′R-dihydroxy-6′S-methyl-(2H)-tetrahydropyran-2-yloxy)-undecanoic acid] | did not significantly affect | significantly reduced | slightly weaker in the mutant | to similar extents | to similar extents | enhance resistance of monocot and dicot plants to a wide range of pathogens |  | 
2 | C[C@H](CCC(=O)O)O[C@@H]1O[C@@H](C)[C@H](O)C[C@H]1O [ascr #9] |  |  |  |  |  |  | did not significantly reduce infection | most abundant
